Laboratory results reported in ChEMBL document CHEMBL1201862, “PubChem BioAssay data set” (2004).
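Exposure lasted 48 hours, with cells grown in 96-well plates and compounds tested at five concentrations. Here, GI50 denotes the concentration required for 50% inhibition of growth.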 Calls of active or inactive are those of the source. Rule as the data show it: active = GI50 up to about 1.1 µM and inactive = higher.

What was measured:
Assay in all cases: NCI tumour cell line growth inhibition, 48 h
NCI-H522 = system: NCI-H522
HOP-18 = system: HOP-18
RXF 631 = system: RXF 631
IGROV-1 = system: IGROV-1
K562 = system: K562
786-0 = system: 786-0
KM12 = system: KM12
DLD-1 = system: DLD-1
SNB-19 = system: SNB-19
MOLT-4 = system: MOLT-4
HOP-62 = system: HOP-62
UO-31 = system: UO-31
HCT-116 = system: HCT-116
NCI-H460 = system: NCI-H460
SNB-75 = system: SNB-75
SN12C = system: SN12C
M14 = system: M14
SF-539 = system: SF-539
RXF 393 = system: RXF 393
NCI-H23 = system: NCI-H23
HCT-15 = system: HCT-15
CCRF-CEM = system: CCRF-CEM
SK-MEL-2 = system: SK-MEL-2
M19-MEL = system: M19-MEL
A549 = system: A549
LXFL 529 = system: LXFL 529
OVCAR-5 = system: OVCAR-5
OVCAR-8 = system: OVCAR-8
HT-29 = system: HT-29
SW-620 = system: SW-620
KM-20L2 = system: KM-20L2
SK-OV-3 = system: SK-OV-3
EKVX = system: EKVX
SK-MEL-5 = system: SK-MEL-5
RPMI-8226 = system: RPMI-8226
SR = system: SR
Malme-3M = system: Malme-3M
TK-10 = system: TK-10
U-251 = system: U-251
A498 = system: A498
NCI-H226 = system: NCI-H226
ACHN = system: ACHN
SK-MEL-28 = system: SK-MEL-28
SNB-78 = system: SNB-78
SF-268 = system: SF-268
XF498 = system: XF498
UACC-257 = system: UACC-257
SF-295 = system: SF-295
CAKI-1 = system: CAKI-1
HL-60 = system: HL-60
COLO 205 = system: COLO 205
DMS-114 = system: DMS-114
LOX IMVI = system: LOX IMVI
HOP-92 = system: HOP-92
UACC-62 = system: UACC-62
OVCAR-3 = system: OVCAR-3
HCC 2998 = system: HCC 2998
DMS-273 = system: DMS-273
OVCAR-4 = system: OVCAR-4

Cc1ccc(C2=C(c3ccc(C)cc3)C(c3ccc(C)cc3)=C(c3ccc(C)cc3)C2=O)cc1
GI50 (NCI-H522): > 100 µM (inactive) | GI50 (HOP-18): > 100 µM (inactive) | GI50 (RXF 631): > 100 µM (inactive) | GI50 (IGROV-1): > 100 µM (inactive) | GI50 (K562): > 100 µM (inactive) | GI50 (786-0): > 100 µM (inactive) | GI50 (KM12): > 100 µM (inactive) | GI50 (DLD-1): > 100 µM (inactive) | GI50 (SNB-19): > 100 µM (inactive) | GI50 (MOLT-4): > 100 µM (inactive) | GI50 (HOP-62): > 100 µM (inactive) | GI50 (UO-31): > 100 µM (inactive) | GI50 (HCT-116): > 100 µM (inactive) | GI50 (NCI-H460): > 100 µM (inactive) | GI50 (SNB-75): > 100 µM (inactive) | GI50 (SN12C): > 100 µM (inactive) | GI50 (M14): > 100 µM (inactive) | GI50 (SF-539): > 100 µM (inactive) | GI50 (RXF 393): > 100 µM (inactive) | GI50 (NCI-H23): > 100 µM (inactive) | GI50 (HCT-15): > 100 µM | GI50 (CCRF-CEM): > 100 µM (inactive) | GI50 (SK-MEL-2): > 100 µM (inactive) | GI50 (M19-MEL): > 100 µM (inactive) | GI50 (A549): > 100 µM (inactive) | GI50 (LXFL 529): > 100 µM (inactive) | GI50 (OVCAR-5): > 100 µM (inactive) | GI50 (OVCAR-8): > 100 µM (inactive) | GI50 (HT-29): > 100 µM (inactive) | GI50 (SW-620): > 100 µM (inactive) | GI50 (KM-20L2): > 100 µM (inactive) | GI50 (SK-OV-3): > 100 µM (inactive) | GI50 (EKVX): > 100 µM (inactive) | GI50 (SK-MEL-5): > 100 µM (inactive) | GI50 (RPMI-8226): > 100 µM (inactive) | GI50 (SR): > 100 µM (inactive) | GI50 (Malme-3M): > 100 µM (inactive) | GI50 (TK-10): > 100 µM (inactive) | GI50 (U-251): > 100 µM (inactive) | GI50 (A498): > 100 µM (inactive) | GI50 (NCI-H226): > 100 µM (inactive) | GI50 (ACHN): > 100 µM (inactive) | GI50 (SK-MEL-28): > 100 µM (inactive) | GI50 (SNB-78): > 100 µM (inactive) | GI50 (SF-268): > 100 µM (inactive) | GI50 (XF498): > 100 µM (inactive) | GI50 (UACC-257): > 100 µM (inactive) | GI50 (SF-295): > 100 µM (inactive)

CN1CC[C@]2(C)c3ccc(O)cc3CC3CCCC1C32C (some centres undefined)
GI50 (CAKI-1): > 100 µM (inactive) | GI50 (NCI-H522): > 100 µM (inactive) | GI50 (HOP-18): > 100 µM (inactive) | GI50 (RXF 631): > 100 µM (inactive) | GI50 (IGROV-1): > 100 µM (inactive) | GI50 (K562): > 100 µM (inactive) | GI50 (786-0): > 100 µM (inactive) | GI50 (KM12): > 100 µM (inactive) | GI50 (DLD-1): > 100 µM (inactive) | GI50 (SNB-19): > 100 µM (inactive) | GI50 (MOLT-4): > 100 µM (inactive) | GI50 (HL-60): > 100 µM (inactive) | GI50 (COLO 205): > 100 µM (inactive) | GI50 (HOP-62): > 100 µM (inactive) | GI50 (UO-31): 92.3 µM (inactive) | GI50 (HCT-116): > 100 µM (inactive) | GI50 (DMS-114): > 100 µM (inactive) | GI50 (NCI-H460): > 100 µM (inactive) | GI50 (SNB-75): 80.9 µM (inactive) | GI50 (SN12C): > 100 µM (inactive) | GI50 (M14): > 100 µM (inactive) | GI50 (SF-539): > 100 µM (inactive) | GI50 (LOX IMVI): > 100 µM (inactive) | GI50 (RXF 393): > 100 µM (inactive) | GI50 (NCI-H23): > 100 µM (inactive) | GI50 (HCT-15): > 100 µM | GI50 (CCRF-CEM): > 100 µM (inactive) | GI50 (SK-MEL-2): > 100 µM (inactive) | GI50 (M19-MEL): > 100 µM (inactive) | GI50 (A549): > 100 µM (inactive) | GI50 (LXFL 529): > 100 µM (inactive) | GI50 (OVCAR-5): > 100 µM (inactive) | GI50 (OVCAR-8): > 100 µM (inactive) | GI50 (HT-29): > 100 µM (inactive) | GI50 (KM-20L2): > 100 µM (inactive) | GI50 (HOP-92): > 100 µM (inactive) | GI50 (UACC-62): > 100 µM (inactive) | GI50 (SK-OV-3): > 100 µM (inactive) | GI50 (EKVX): > 100 µM (inactive) | GI50 (SK-MEL-5): > 100 µM (inactive) | GI50 (OVCAR-3): > 100 µM (inactive) | GI50 (RPMI-8226): > 100 µM (inactive) | GI50 (SR): > 100 µM (inactive) | GI50 (Malme-3M): > 100 µM (inactive) | GI50 (TK-10): > 100 µM (inactive) | GI50 (U-251): > 100 µM (inactive) | GI50 (HCC 2998): > 100 µM (inactive) | GI50 (A498): > 100 µM (inactive) | GI50 (NCI-H226): > 100 µM (inactive) | GI50 (ACHN): > 100 µM (inactive) | GI50 (SK-MEL-28): > 100 µM (inactive) | GI50 (SNB-78): > 100 µM (inactive) | GI50 (SF-268): > 100 µM (inactive) | GI50 (XF498): > 100 µM (inactive) | GI50 (UACC-257): > 100 µM (inactive) | GI50 (SF-295): > 100 µM (inactive)

C#CCOCn1cnc2c(Cl)ncnc21
GI50 (CAKI-1): > 100 µM (inactive) | GI50 (NCI-H522): 86.1 µM (inactive) | GI50 (HOP-18): > 100 µM (inactive) | GI50 (RXF 631): > 100 µM (inactive) | GI50 (IGROV-1): > 100 µM (inactive) | GI50 (K562): 59.6 µM (inactive) | GI50 (786-0): > 100 µM (inactive) | GI50 (KM12): > 100 µM (inactive) | GI50 (DLD-1): > 100 µM (inactive) | GI50 (SNB-19): > 100 µM (inactive) | GI50 (MOLT-4): 67.5 µM (inactive) | GI50 (COLO 205): > 100 µM (inactive) | GI50 (HOP-62): > 100 µM (inactive) | GI50 (UO-31): > 100 µM (inactive) | GI50 (HCT-116): > 100 µM (inactive) | GI50 (DMS-114): 41.4 µM (inactive) | GI50 (NCI-H460): > 100 µM (inactive) | GI50 (SNB-75): > 100 µM (inactive) | GI50 (SN12C): > 100 µM (inactive) | GI50 (M14): > 100 µM (inactive) | GI50 (SF-539): > 100 µM (inactive) | GI50 (LOX IMVI): 52.6 µM (inactive) | GI50 (NCI-H23): > 100 µM (inactive) | GI50 (CCRF-CEM): > 100 µM (inactive) | GI50 (SK-MEL-2): > 100 µM (inactive) | GI50 (M19-MEL): > 100 µM (inactive) | GI50 (A549): > 100 µM (inactive) | GI50 (LXFL 529): > 100 µM (inactive) | GI50 (OVCAR-5): > 100 µM (inactive) | GI50 (OVCAR-8): > 100 µM (inactive) | GI50 (HT-29): > 100 µM (inactive) | GI50 (SW-620): > 100 µM (inactive) | GI50 (HOP-92): > 100 µM (inactive) | GI50 (UACC-62): > 100 µM (inactive) | GI50 (DMS-273): > 100 µM (inactive) | GI50 (SK-OV-3): > 100 µM (inactive) | GI50 (EKVX): > 100 µM (inactive) | GI50 (SK-MEL-5): > 100 µM (inactive) | GI50 (OVCAR-3): > 100 µM (inactive) | GI50 (RPMI-8226): > 100 µM (inactive) | GI50 (SR): 50.9 µM (inactive) | GI50 (Malme-3M): > 100 µM (inactive) | GI50 (TK-10): > 100 µM (inactive) | GI50 (U-251): > 100 µM (inactive) | GI50 (HCC 2998): > 100 µM (inactive) | GI50 (OVCAR-4): > 100 µM (inactive) | GI50 (A498): > 100 µM (inactive) | GI50 (NCI-H226): > 100 µM (inactive) | GI50 (ACHN): > 100 µM (inactive) | GI50 (SK-MEL-28): > 100 µM (inactive) | GI50 (SNB-78): > 100 µM (inactive) | GI50 (SF-268): > 100 µM (inactive) | GI50 (XF498): > 100 µM (inactive) | GI50 (UACC-257): > 100 µM (inactive) | GI50 (SF-295): > 100 µM (inactive)
